Like-named read-outs stand apart in the source and are kept apart here.
What was measured:
[1] = tested on: patients with primary aldosteronism; details: for plasma potassium concentration, mean: all doses QD
Procedure: (§1) A double-blind, randomized, Phase 2 trial was conducted between November 2019 and June 2022 at 11 centres in Italy, Switzerland and the Netherlands (NCT04007406). […] Patients requiring fixed-dose antihypertensive therapy continued treatment throughout the study; steroid therapies, β-adrenergic and renin-angiotensin-aldosterone system blockers were not permitted. At 14-day intervals, office blood pressures were recorded and blood samples were taken for measurement of steroid and peptide hormones and electrolytes at a central laboratory.

[2] = tested on: patients with primary aldosteronism
Procedure: as §1
The urinary content of tetrahydroaldosterone (THA) was measured centrally by gas chromatography-coupled mass spectrometry (GC-MS).

[3] = tested on: patients with primary aldosteronism; remark: listed apart in the source
Procedure: as §1
Blood pressure and pulse rate were measured at each visit after a >15-minute rest in sitting position. Blood pressure and pulse rate were measured using a locally calibrated and validated automated oscillometric device (e.g., Omron Healthcare). An adapted wrap cuff was placed on the dominant arm. Three repeat measurements with a 10-minute interval were recorded; the average of the 2nd and 3rd measurements were study relevant.
For all efficacy endpoints, changes from baseline were calculated from linear models and accompanied by 95% confidence intervals and p values. Log-transformed values were used for changes in ARR. The full analysis set (FAS) and safety set were defined as all randomized patients who received at least one dose of study drug.

[4] = each dose arm, sustained over active treatment period
[5] = 4 mg once daily, n=10, Day 1 (baseline)
[6] = 8 mg once daily, n=12, Day 1 (baseline)
[7] = 12 mg once daily, n=13, Day 1 (baseline)
[8] = 4 mg once daily, n=10, Day 70 (after placebo withdrawal)
[9] = 8 mg once daily, n=12, Day 70 (after placebo withdrawal)

With “(R)-(+)-5-(p-cyanophenyl)-5,6,7,8-tetrahydroimidazolium[1,5-a]pyridine dihydrogen phosphate [dexfadrostat phosphate]” the “plasma potassium concentration, mean” value ([1]; baseline ≤3.0 mmol/L despite potassium supplements, Day 56) was 4.0 mmol/L, the “plasma potassium concentration, mean” value ([1]; baseline ≤3.0 mmol/L despite potassium supplements, Day 70 (placebo withdrawal)) was 3.8 mmol/L and the “effect on plasma potassium concentration” value [1, 4] was “rapid and significant (p<0.001) increase in plasma potassium concentrations”. The “plasma potassium concentration, mean” value ([1]; in presence of potassium supplements, Day 1 (baseline)) was 3.3 mmol/L, the “plasma potassium concentration, mean” value ([1]; in presence of potassium supplements, Day 14) was 4.1 mmol/L and the “plasma potassium concentration, mean” value ([1]; in presence of potassium supplements, Day 28) was 4.0 mmol/L. For the same substance, the “plasma potassium concentration, mean” value ([1]; in presence of potassium supplements, Day 42) was 4.1 mmol/L, the “plasma potassium concentration, mean” value ([1]; in presence of potassium supplements, Day 56) was 4.1 mmol/L and the “plasma potassium concentration, mean” value ([1]; in presence of potassium supplements, Day 70 (placebo withdrawal)) was 3.8 mmol/L. The “change in urine THA content from baseline to Day 56, mean” value (shortened to “change in urine THA content … mean”) ([2]; 4 mg once daily, n=10) was −66.90 24 μg/24-hour, the “change in urine THA content from baseline to Day 56, median” value (from here on “change in urine THA content … median”) ([2]; 4 mg once daily, n=10) was −61.00 24 μg/24-hour and the “urine tetrahydroaldosterone (THA) content, mean” value [2, 5] was 78.90 24 μg/24-hour. For the same substance, the “urine tetrahydroaldosterone (THA) content, median” value [2, 5] was 80.00 24 μg/24-hour, the “urine tetrahydroaldosterone (THA) content, mean” value ([2]; 4 mg once daily, n=10, Day 56) was 12.00 24 μg/24-hour and the “urine tetrahydroaldosterone (THA) content, median” value ([2]; 4 mg once daily, n=10, Day 56) was 11.50 24 μg/24-hour. The “change in urine THA content … mean” value ([2]; 8 mg once daily, n=12) was −63.00 24 μg/24-hour, the “change in urine THA content … median” value ([2]; 8 mg once daily, n=12) was −50.00 24 μg/24-hour and the “urine tetrahydroaldosterone (THA) content, mean” value [2, 6] was 71.67 24 μg/24-hour. For the same substance, the “urine tetrahydroaldosterone (THA) content, median” value [2, 6] was 59.50 24 μg/24-hour, the “urine tetrahydroaldosterone (THA) content, mean” value ([2]; 8 mg once daily, n=12, Day 56) was 8.67 24 μg/24-hour and the “urine tetrahydroaldosterone (THA) content, median” value ([2]; 8 mg once daily, n=12, Day 56) was 5.00 24 μg/24-hour. For the same substance, the “change in urine THA content … mean” value ([2]; 12 mg once daily, n=13) was −58.31 24 μg/24-hour, the “change in urine THA content … median” value ([2]; 12 mg once daily, n=13) was −66.00 24 μg/24-hour and the “urine tetrahydroaldosterone (THA) content, mean” value [2, 7] was 67.38 24 μg/24-hour. For the same substance, the “urine tetrahydroaldosterone (THA) content, median” value [2, 7] was 69.00 24 μg/24-hour, the “urine tetrahydroaldosterone (THA) content, mean” value ([2]; 12 mg once daily, n=13, Day 56) was 9.08 24 μg/24-hour and the “urine tetrahydroaldosterone (THA) content, median” value ([2]; 12 mg once daily, n=13, Day 56) was 5.00 24 μg/24-hour. The “effect on urinary tetrahydroaldosterone content” value ([2]; all three doses, 24-hour urine at end of active treatment vs baseline) was “significant reductions (p<0.0001) in tetrahydroaldosterone (THA) content”, the “urine aldosterone content, mean” value ([2]; baseline urine aldosterone 10-50 μg/24-hour, 4 mg QD, Day 1 (baseline)) was 26 μg/24-hour and the “urine aldosterone content, mean” value ([2]; baseline urine aldosterone 10-50 μg/24-hour, 4 mg QD, Day 56) was 6 μg/24-hour. The “urine aldosterone content, mean” value ([2]; baseline urine aldosterone 10-50 μg/24-hour, 8 mg QD, Day 1 (baseline)) was 33 μg/24-hour, the “urine aldosterone content, mean” value ([2]; baseline urine aldosterone 10-50 μg/24-hour, 8 mg QD, Day 56) was 8 μg/24-hour and the “urine aldosterone content, mean” value ([2]; baseline urine aldosterone 10-50 μg/24-hour, 12 mg QD, Day 1 (baseline)) was 29 μg/24-hour. The “urine aldosterone content, mean” value ([2]; baseline urine aldosterone 10-50 μg/24-hour, 12 mg QD, Day 56) was 3 μg/24-hour, the “urine aldosterone content, mean” value ([2]; baseline urine aldosterone 50-100 μg/24-hour, 4 mg QD, Day 1 (baseline)) was 74 μg/24-hour and the “urine aldosterone content, mean” value ([2]; baseline urine aldosterone 50-100 μg/24-hour, 4 mg QD, Day 56) was 15 μg/24-hour. For the same substance, the “urine aldosterone content, mean” value ([2]; baseline urine aldosterone 50-100 μg/24-hour, 8 mg QD, Day 1 (baseline)) was 69 μg/24-hour, the “urine aldosterone content, mean” value ([2]; baseline urine aldosterone 50-100 μg/24-hour, 8 mg QD, Day 56) was 5 μg/24-hour and the “urine aldosterone content, mean” value ([2]; baseline urine aldosterone 50-100 μg/24-hour, 12 mg QD, Day 1 (baseline)) was 68 μg/24-hour. The “urine aldosterone content, mean” value ([2]; baseline urine aldosterone 50-100 μg/24-hour, 12 mg QD, Day 56) was 12 μg/24-hour, the “urine aldosterone content, mean” value ([2]; baseline urine aldosterone 100-250 μg/24-hour, 4 mg QD, Day 1 (baseline)) was 123 μg/24-hour and the “urine aldosterone content, mean” value ([2]; baseline urine aldosterone 100-250 μg/24-hour, 4 mg QD, Day 56) was 13 μg/24-hour. For the same substance, the “urine aldosterone content, mean” value ([2]; baseline urine aldosterone 100-250 μg/24-hour, 8 mg QD, Day 1 (baseline)) was 69 μg/24-hour, the “urine aldosterone content, mean” value ([2]; baseline urine aldosterone 100-250 μg/24-hour, 8 mg QD, Day 56) was 5 μg/24-hour and the “urine aldosterone content, mean” value ([2]; baseline urine aldosterone 100-250 μg/24-hour, 12 mg QD, Day 1 (baseline)) was 68 μg/24-hour. The “urine aldosterone content, mean” value ([2]; baseline urine aldosterone 100-250 μg/24-hour, 12 mg QD, Day 56) was 12 μg/24-hour, the “office blood pressure (oSBP), mean” value [3, 5] was 146.95 mmHg and the “office blood pressure (oSBP), median” value [3, 5] was 144.00 mmHg. The “office blood pressure (oSBP), mean” value ([3]; 4 mg once daily, n=10, Day 14) was 134.55 mmHg, the “office blood pressure (oSBP), median” value ([3]; 4 mg once daily, n=10, Day 14) was 136.25 mmHg and the “office blood pressure (oSBP), mean” value ([3]; 4 mg once daily, n=10, Day 28) was 133.70 mmHg. The “office blood pressure (oSBP), median” value ([3]; 4 mg once daily, n=10, Day 28) was 130.50 mmHg, the “office blood pressure (oSBP), mean” value ([3]; 4 mg once daily, n=10, Day 42) was 134.90 mmHg and the “office blood pressure (oSBP), median” value ([3]; 4 mg once daily, n=10, Day 42) was 132.75 mmHg. The “office blood pressure (oSBP), mean” value ([3]; 4 mg once daily, n=10, Day 56) was 133.00 mmHg, the “office blood pressure (oSBP), median” value ([3]; 4 mg once daily, n=10, Day 56) was 133.75 mmHg and the “office blood pressure (oSBP), mean” value [3, 8] was 142.20 mmHg. For the same substance, the “office blood pressure (oSBP), median” value [3, 8] was 145.25 mmHg, the “office blood pressure (oSBP), mean” value [3, 6] was 148.00 mmHg and the “office blood pressure (oSBP), median” value [3, 6] was 147.00 mmHg. For the same substance, the “office blood pressure (oSBP), mean” value ([3]; 8 mg once daily, n=12, Day 14) was 137.88 mmHg, the “office blood pressure (oSBP), median” value ([3]; 8 mg once daily, n=12, Day 14) was 137.50 mmHg and the “office blood pressure (oSBP), mean” value ([3]; 8 mg once daily, n=12, Day 28) was 135.08 mmHg. For the same substance, the “office blood pressure (oSBP), median” value ([3]; 8 mg once daily, n=12, Day 28) was 133.25 mmHg, the “office blood pressure (oSBP), mean” value ([3]; 8 mg once daily, n=12, Day 42) was 137.83 mmHg and the “office blood pressure (oSBP), median” value ([3]; 8 mg once daily, n=12, Day 42) was 134.50 mmHg. For the same substance, the “office blood pressure (oSBP), mean” value ([3]; 8 mg once daily, n=12, Day 56) was 134.42 mmHg, the “office blood pressure (oSBP), median” value ([3]; 8 mg once daily, n=12, Day 56) was 135.75 mmHg and the “office blood pressure (oSBP), mean” value [3, 9] was 142.46 mmHg. For the same substance, the “office blood pressure (oSBP), median” value [3, 9] was 139.75 mmHg, the “office blood pressure upon drug withdrawal” value ([3]; Day 70, after 14-day placebo withdrawal) was “blood pressure values returned towards baseline levels” and the “effect on office blood pressure” value [3, 4] was “rapid and significant (p≤0.001) decrease in office blood pressure”.

Reference: patent US20260124184A1, “ONCE DAILY ALDOSTERONE SYNTHASE INHIBITOR (R)-(+)-5-(P-CYANOPHENYL)-5,6,7,8-TETRAHYDROIMIDAZO[L,5-A]PYRIDINE” (priority 2022, published 2026)
